From ChEMBL document CHEMBL1255205, “Validated predictive QSAR modeling of N-aryl-oxazolidinone-5-carboxamides for anti-HIV protease activity” (Bioorg Med Chem Lett, 2010)

Biological target: Protease (Human immunodeficiency virus 1, UniProt Q9YQ12)
Assay: Inhibition of HIV1 protease

Sequence of Protease (Q9YQ12 whole entry): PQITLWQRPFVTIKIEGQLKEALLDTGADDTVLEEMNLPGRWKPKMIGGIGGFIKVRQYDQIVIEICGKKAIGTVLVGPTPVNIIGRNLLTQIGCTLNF

Row | SMILES | Ki [nM]
1 | Cc1cccc(C)c1OCC(=O)N[C@@H](Cc1ccccc1)C(O)C[C@H](Cc1ccccc1)NC(=O)[C@@H]1CN(c2cccc(C(F)(F)F)c2)C(=O)O1 (stereo partly drawn) | 21.6
2 | CC(=O)NC(C(=O)N[C@@H](Cc1ccccc1)CC(O)[C@H](Cc1ccccc1)NC(=O)[C@@H]1CN(c2ccc(F)c(F)c2)C(=O)O1)C(C)C (stereo partly drawn) | 2.13
3 | CC(=O)NC(C(=O)N[C@@H](Cc1ccccc1)CC(O)[C@H](Cc1ccccc1)NC(=O)[C@@H]1CN(c2cccc(C(F)(F)F)c2)C(=O)O1)C(C)C (stereo partly drawn) | 2.62
4 | COC(=O)NC(C(=O)N[C@@H](Cc1ccccc1)CC(O)[C@H](Cc1ccccc1)NC(=O)[C@@H]1CN(c2ccccc2)C(=O)O1)C(C)(C)C (stereo partly drawn) | 3.51
5 | Cc1cccc(C)c1OCC(=O)N[C@@H](Cc1ccccc1)CC(O)[C@H](Cc1ccccc1)NC(=O)[C@@H]1CN(c2ccccc2)C(=O)O1 (stereo partly drawn) | 8.05
6 | CC(=O)c1cccc(N2C[C@@H](C(=O)N[C@@H](Cc3ccccc3)C(O)C[C@H](Cc3ccccc3)NC(=O)COc3c(C)cccc3C)OC2=O)c1 (stereo partly drawn) | 35.1
7 | CC(=O)c1ccc(N2C[C@@H](C(=O)N[C@@H](Cc3ccccc3)C(O)C[C@H](Cc3ccccc3)NC(=O)COc3c(C)cccc3C)OC2=O)cc1 (stereo partly drawn) | 39.9
8 | Cc1cccc(C)c1OCC(=O)N[C@@H](Cc1ccccc1)C(O)C[C@H](Cc1ccccc1)NC(=O)[C@@H]1CN(c2ccccc2)C(=O)O1 (stereo partly drawn) | 4730
9 | O=C(Cc1ccc2c(c1)OCO2)N[C@H](CC[C@H](Cc1ccccc1)NC(=O)[C@@H]1CN(c2ccccc2)C(=O)O1)Cc1ccccc1 | 657
10 | O=C(N[C@@H](Cc1ccccc1)C(O)C[C@H](Cc1ccccc1)NC(=O)[C@@H]1CN(c2cccc(C(F)(F)F)c2)C(=O)O1)OCc1ccccn1 (stereo partly drawn) | 41.1
11 | COC(=O)NC(C(=O)NN(CC(C)C)CC(O)[C@H](Cc1ccccc1)NC(=O)[C@@H]1CN(c2ccccc2)C(=O)O1)C(C)(C)C (stereo partly drawn) | 7
12 | COC(=O)NC(C(=O)N[C@@H](Cc1ccccc1)C(O)CN(CC(C)C)NC(=O)C1CN(c2ccccc2)C(=O)O1)C(C)(C)C (stereo partly drawn) | 10.6
13 | CC(=O)c1cccc(N2CC(C(=O)NN(Cc3ccc(-c4ccccn4)cc3)CC(O)[C@H](Cc3ccccc3)NC(=O)[C@@H]3CN(c4cccc(C(C)=O)c4)C(=O)O3)OC2=O)c1 (stereo partly drawn) | 1090
